According to patent publication US6583171B1, “Antineoplastic agents” (Welichem Biotech Inc., priority 1996, dated 2003):
Where two headings read alike, the source gives them in different places. Blank lines part the entries; values can stand above or below the compound they belong to.

Columns and labels:
[1] = system: Human Lung Cancer (H460); experiment: Anticancer activity of xenorxide derivatives (Example 8), H460; format: cell-based; details: NCI-H460; H460 human lung cancer cells
Text: (§1) Anticancer Activity of Xenorxide Derivatives Against Human Lung Cancer (H460) and Breast Cancer (LCC6)

[2] = system: Breast Cancer (LCC6); experiment: Anticancer activity of xenorxide derivatives (Example 8), LCC6; format: cell-based; details: Homo sapiens, LCC-6; LCC6 breast cancer cells
Text: as §1

[3] = system: Sk-Mel-28; experiment: NCI sulforhodamine B (SRB) anticancer assay, Sk-Mel-28; format: cell-based; details: Sk-Mel-28 cells, read-out: LC50 (the source's name)
Text: (§2) The method normally used by the American National Cancer Institute (NCI) for the effectiveness of a compound is based on the LC50. The LC50 is the compound concentration at which half of the cancer cell population is killed. The assay is commonly used by those skilled in the art and are accepted as indicative of anticancer activity in mammals. The test animal cancer cells are available from ATCC, NCI and other organizations. The anticancer activities of compounds of the present invention have been determined in cell cultures of various human cancer cells (see table below) using the standard NCI method with slight modifications. The specifications of the procedure was described by Skehan et al. (1990). Briefly, cancer cells were grown in RPMI-1640 medium with glutamine and 10% fetal calf serum, and were harvested from exponential-phase maintenance cultures. The harvested cells were counted and dispensed into replicate 96-well culture plates in 180 μl volumes for each well with a cell density of up to 2,500 cells/well. The cells were allowed to settle for about 4 hours at 37° C. Then 20 μl of medium containing the test compound was added into each well, resulting in a suitable final test compound concentration. The test plates were then incubated at 37° C. The test was terminated after incubation by adding to each well 50 1 of cold 50% trichloroacetic acid. The cells were fixed for an hour at 4° C. and then washed five times with tap water. The washed plates were air-dried and stained for 30 minutes with 0.4% (wt/vol) sulforhodamine B (SRB) which was dissolved in 1% acetic acid. At the end of the staining period, the SRB was removed and plates were quickly rinsed five times with 1% acetic acid. After being rinsed, the plates were air-dried and 100 μl of 10 mM tris base (pH 10.5) were added to each well to dissolve the dye bound to the cells. The plates were placed on a gyratory shaker and shaken (100 rpm) for 10 minutes. Finally, the plates were read in a microtiter plate reader at 570 nm.

[4] = system: DU-145 (Prostate cancer); experiment: NCI sulforhodamine B (SRB) anticancer assay, DU-145; format: cell-based; details: DU-145 (Prostate cancer) cells, read-out: LC50 (the source's name)
Text: as §2

[5] = system: NCI-H460; experiment: NCI sulforhodamine B (SRB) anticancer assay, NCI-H460; format: cell-based; details: NCI-H460 cells, read-out: LC50 (the source's name)
Text: as §2

[6] = system: UO-31 (Renal cancer); experiment: NCI sulforhodamine B (SRB) anticancer assay, UO-31; format: cell-based; details: UO-31 (Renal cancer) cells, read-out: LC50 (the source's name)
Text: as §2

[7] = system: MCF-7; experiment: NCI sulforhodamine B (SRB) anticancer assay, MCF-7; format: cell-based
Text: as §2

[8] = system: HT29; experiment: NCI sulforhodamine B (SRB) anticancer assay, HT29; format: cell-based
Text: as §2

[9] = system: SF-295 (CNS cancer); experiment: NCI sulforhodamine B (SRB) anticancer assay, SF-295; format: cell-based; details: SF-295 (CNS cancer) cells, read-out: LC50 (the source's name)
Text: as §2

[10] = system: Hela; experiment: NCI sulforhodamine B (SRB) anticancer assay, Hela; format: cell-based
Text: as §2

[11] = system: LNCap; experiment: NCI sulforhodamine B (SRB) anticancer assay, LNCap; format: cell-based, human; details: LNCap cells; read-out: LC50 (the source's name)
Text: as §2, with “The test was terminated after incubation by adding to each well 50 1 of cold 50% trichloroacetic acid. The cells were fixed for an hour at 4° C. and then washed five times with tap water. The washed plates were air-dried and stained for 30 minutes with 0.4% (wt/vol) sulforhodamine B (SRB) which was dissolved in 1% acetic acid. At the end of the staining period, the SRB was removed and plates were quickly rinsed five times with 1% acetic acid. After being rinsed, the plates were air-dried and 100 μl of 10 mM tris base (pH 10.5) were added to each well to dissolve the dye bound to the cells. The plates were placed on a gyratory shaker and shaken (100 rpm) for 10 minutes.” left out

[12] = system: P388; experiment: NCI sulforhodamine B (SRB) anticancer assay, P388; format: cell-based; details: P388 cells; read-out: LC50 (the source's name)
Text: as §2, with “The test was terminated after incubation by adding to each well 50 1 of cold 50% trichloroacetic acid. The cells were fixed for an hour at 4° C. and then washed five times with tap water. The washed plates were air-dried and stained for 30 minutes with 0.4% (wt/vol) sulforhodamine B (SRB) which was dissolved in 1% acetic acid. At the end of the staining period, the SRB was removed and plates were quickly rinsed five times with 1% acetic acid. After being rinsed, the plates were air-dried and 100 μl of 10 mM tris base (pH 10.5) were added to each well to dissolve the dye bound to the cells. The plates were placed on a gyratory shaker and shaken (100 rpm) for 10 minutes.” left out

[13] = MCF-7 cells, read-out: LC50 (the source's name)
[14] = HT29 cells, concentration at which half of the cancer cell population is killed, read-out: LC50 (the source's name)
[15] = Hela cells, read-out: LC50 (the source's name)

- IC50 [1]: 2130 nM
- IC50 [2]: 6380 nM
Compound: COc1ccc(N2C(=O)C(NC(=O)C(F)(F)F)=C3C2=CSS3(=O)=O)cc1 [BLI-041-1]

- IC50 [1]: 560 nM
- IC50 [2]: 670 nM
Compound: CC(=O)NC1=C2C(=CSS2(=O)=O)N(c2ccccc2)C1=O [CSL-30]

Compound: CC(C)CCCC(=O)Nc1c2sscc-2[nH]c1=O [XN3, 6(5′-Methylhexanamido)-4,5-dihydro1,2-dithiolo[4,3-b]pyrrol-5one]
- CC50 ([3]; Homo sapiens): 240 nM
- CC50 ([4]; Homo sapiens): 140 nM
- CC50 ([5]; Homo sapiens): 30 nM
- CC50 ([6]; Homo sapiens): 180 nM
- CC50 ([7]; Homo sapiens, MCF7, MCF-7 cells, read-out: LC50 (the source's name)): 390 nM
- CC50 ([8]; Homo sapiens, HT-29, HT29 cells, concentration at which half of the cancer cell population is killed, read-out: LC50 (the source's name)): 110 nM
- CC50 ([9]; Homo sapiens): 40 nM
- CC50 ([10]; Homo sapiens, Hela cells, read-out: LC50 (the source's name)): 320 nM

Compound: CC(=O)Nc1c2sscc-2n(C)c1=O [XN0, 6-(Acetamido)-4-methyl-4,5dihydro-1.2-dithiolo[4,3-b]pyrrol-5-one]
- CC50 ([7]; Homo sapiens, MCF7, read-out: LC50): 350 nM
- CC50 ([8]; Homo sapiens, HT-29, read-out: LC50): 130 nM
- CC50 ([10]; Homo sapiens, HeLa, read-out: LC50): 310 nM

Compound: CC(C)CCCC(=O)Nc1c2[s+]([O-])scc-2n(C)c1=O (stereo not drawn) [XM2]
- CC50 [7, 13]: 550 nM
- CC50 [8, 14]: 110 nM
- CC50 [10, 15]: 210 nM

- IC50 [1]: 230 nM
- IC50 [2]: 1630 nM
Compound: COc1ccc(N2C(=O)C(NC(C)=O)=C3C2=CSS3(=O)=O)cc1 [BLI-042-1]

Compound: CCCCCC(=O)Nc1c2[s+]([O-])scc-2n(C)c1=O (stereo not drawn) [XM1]
- CC50 [7, 13]: 470 nM
- CC50 [8, 14]: 470 nM
- CC50 [10, 15]: 800 nM

- IC50 [1]: 1980 nM
- IC50 [2]: 1970 nM
Compound: O=C(NC1=C2C(=CSS2(=O)=O)N(Cc2ccccc2)C1=O)c1ccccc1 [CSL-29]

Compound: CCCCCC(=O)NC1=C2C(=CSS2(=O)=O)N(C)C1=O [XO1]
- CC50 [3]: 190 nM
- CC50 [4]: 1800 nM
- CC50 [5]: 280 nM
- CC50 [11]: 540 nM
- CC50 [12]: 660 nM
- CC50 [6]: 1850 nM
- CC50 [7, 13]: 890 nM
- CC50 [8, 14]: 220 nM
- CC50 [9]: 1580 nM
- CC50 [10, 15]: 160 nM

Compound: CCCCCC(=O)Nc1c2sscc-2n(C)c1=O [XN1, 6-(Hexanamido)-4-methyl-4,5-dihydro-1.2-dithiolo[4,3-b]pyrrol-5-one]
- CC50 [7, 13]: 560 nM
- CC50 [8, 14]: 110 nM
- CC50 [10, 15]: 460 nM

Compound: CC(C)CCCC(=O)NC1=C2C(=CSS2(=O)=O)N(C)C1=O [XO2]
- CC50 [3]: 730 nM
- CC50 [4]: 1600 nM
- CC50 [5]: 220 nM
- CC50 [11]: 190 nM
- CC50 [12]: 280 nM
- CC50 [6]: 6000 nM
- CC50 [7, 13]: 950 nM
- CC50 [8, 14]: 850 nM
- CC50 [9]: 2120 nM
- CC50 [10, 15]: 130 nM
